For the assay, the target named is T1, human GABA A α5β3γ2 receptor (Homo sapiens, UniProt P18507+P31644).
T1 construct: expressed in transfected cells; host or cells: HEK293 (transiently transfected), membranes
As to the kind of experiment: [3H]flumazenil competition binding to HEK293 cells expressing human GABA A receptors. The following applies: competition for [3H]flumazenil (0.5 nM for α5); HEK293 cells expressing human (transiently transfected) receptors; means of two determinations; read-out: hKi GABA Aα5. Here is the method: The affinity of compounds at GABA A receptor subtypes was measured by competition for [^3H]flumazenil (85 Ci/mmol; Roche) binding to HEK293 cells expressing rat (stably transfected) or human (transiently transfected) receptors of composition α1β3γ2, α2β3γ2, α3β3γ2 and α5β3γ2.
Cell pellets were suspended in Krebs-tris buffer (4.8 mM KCl, 1.2 mM CaCl2, 1.2 mM MgCl2, 120 mM NaCl, 15 mM Tris; pH 7.5; binding assay buffer), homogenized by polytron for ca. 20 sec on ice and centrifuged for 60 min at 4° C. (50000 g; Sorvall, rotor: SM24=20000 rpm). The cell pellets were resuspended in Krebs-tris buffer and homogenized by polytron for ca. 15 sec on ice. Protein was measured (Bradford method, Bio-Rad) and aliquots of 1 mL were prepared and stored at −80° C.
Radioligand binding assays were carried out in a volume of […] (96-well plates) which contained […] of cell membranes, [^3H]flumazenil at a concentration of 1 nM for α1, α2, α3 subunits and 0.5 nM for α5 subunits and the test compound in the range of […]. Nonspecific binding was defined by 10^−5 M diazepam and typically represented less than 5% of the total binding. Assays were incubated to equilibrium for 1 hour at 4° C. and harvested onto GF/C uni-filters (Packard) by filtration using a Packard harvester and washing with ice-cold wash buffer (50 mM Tris; pH 7.5). After drying, filter-retained radioactivity was detected by liquid scintillation counting. Ki values were calculated using Excel-Fit (Microsoft) and are the means of two determinations.
Representative test results, obtained by the above described assay measuring binding affinity to HEK293 cells expressing human (h) receptors, are shown in table 1 below.

For `CCCCc1noc(C)c1CNc1ccc(C(=O)NC(C)CO)cn1` (centres unmarked) [Example 43, 6-[((3-Butyl-5-methyl-isoxazol-4-yl)methyl)-amino]-N-(2-hydroxy-1-methyl-ethyl)-nicotinamide], the Ki stood at 77 nM.

As to `Cc1onc(C2CCCCC2)c1COc1ccc(C(=O)NCCO)cn1` [Example 34, 6-((3-Cyclohexyl-5-methyl-isoxazol-4-yl)methoxy)-N-(2-hydroxy-ethyl)-nicotinamide], the Ki amounted to 5.8 nM.

For the molecule `CCCCc1noc(C)c1COc1ccc(C(=O)N2CCC2)cn1` [Example 22, Azetidin-1-yl-[6-((3-butyl-5-methyl-isoxazol-4-yl)methoxy)-pyridin-3-yl]-methanone], the Ki stood at 34.5 nM.

Take `Cc1onc(C2CCCC2)c1COc1ccc(C(=O)NC(C)C)cn1` [Example 30, 6-((3-Cyclopentyl-5-methyl-isoxazol-4-yl)methoxy)-N-isopropyl-nicotinamide]: the Ki was determined as 37.6 nM.

As to `CCCCc1noc(C)c1COc1ccc(C(=O)NC(C)CO)cn1` (racemic) [Example 9, Rac-6-((3-Butyl-5-methyl-isoxazol-4-yl)methoxy)-N-(2-hydroxy-1-methyl-ethyl)-nicotinamide], the Ki came to 3.1 nM.

`Cc1onc(CCC(F)(F)F)c1COc1ccc(C(=O)NC(C)C)cn1` [Example 3, N-Isopropyl-6-[(5-methyl-3-(3,3,3-trifluoro-propyl)-isoxazol-4-yl)methoxy]-nicotinamide]: the Ki came to 49 nM.

On to `CCCCc1noc(C)c1COc1ccc(C(=O)NC2CC2)cn1` [Example 6, 6-((3-Butyl-5-methyl-isoxazol-4-yl)methoxy)-N-cyclopropyl-nicotinamide], for which the Ki came to 6.5 nM.

For `Cc1onc(N2CCCC2)c1COc1ccc(C(=O)NC2CCOCC2)cn1` [Example 41, 6-((5-methyl-3-pyrrolidin-1-yl-isoxazol-4-yl)methoxy)-N-(tetrahydro-pyran-4-yl)-nicotinamide], the Ki stood at 3.9 nM.

With `CCCCc1noc(C)c1COc1ccc(C(=O)NC2CCOCC2)cn1` [Example 7, 6-((3-Butyl-5-methyl-isoxazol-4-yl)methoxy)-N-(tetrahydro-pyran-4-yl)-nicotinamide], the Ki was found to be 5.2 nM.

With `CCCCc1noc(C)c1COc1ccc(C(=O)N[C@H]2CCOC2)cn1` [Example 16, 6-((3-Butyl-5-methyl-isoxazol-4-yl)methoxy)-N-(S)-tetrahydro-furan-3-yl-nicotinamide], the Ki worked out at 6.5 nM.

For the molecule `CCCCc1noc(C)c1COc1ccc(C(=O)Nc2cnn(C)c2)cn1` [Example 23, 6-((3-Butyl-5-methyl-isoxazol-4-yl)methoxy)-N-(1-methyl-1H-pyrazol-4-yl)-nicotinamide], the Ki was found to be 2.2 nM.

As for `CCCCc1noc(C)c1CNc1ccc(C(=O)NC2CCOCC2)cn1` [Example 44, 6-[((3-Butyl-5-methyl-isoxazol-4-yl)methyl)-amino]-N-(tetrahydro-pyran-4-yl)-nicotinamide], the Ki turned out to be 67.6 nM.

As for `Cc1onc(C2CCOCC2)c1COc1ccc(C(=O)N[C@@H](C)CO)cn1` [Example 38, N—((S)-2-Hydroxy-1-methyl-ethyl)-6-[(5-methyl-3-(tetrahydro-pyran-4-yl)-isoxazol-4-yl)methoxy]-nicotinamide], the Ki stood at 41.6 nM.

Turning to `Cc1onc(C2CCCCC2)c1COc1ccc(C(=O)NC2CC2)cn1` [Example 32, 6-((3-Cyclohexyl-5-methyl-isoxazol-4-yl)methoxy)-N-cyclopropyl-nicotinamide], the Ki came out at 4.7 nM.

`CCCCc1noc(C)c1COc1ccc(C(=O)NC2(C)CC2)cn1` [Example 21, 6-((3-Butyl-5-methyl-isoxazol-4-yl)methoxy)-N-(1-methyl-cyclopropyl)-nicotinamide]: the Ki is 11.5 nM.

For `CCCCc1noc(C)c1COc1ccc(C(=O)NCC(C)(C)O)cn1` [Example 13, 6-((3-Butyl-5-methyl-isoxazol-4-yl)methoxy)-N-(2-hydroxy-2-methyl-propyl)-nicotinamide], the Ki amounted to 9.2 nM.

Regarding `Cc1onc(C2CCCCC2)c1COc1ccc(C(=O)NC2CCOCC2)cn1` [Example 33, 6-((3-Cyclohexyl-5-methyl-isoxazol-4-yl)methoxy)-N-(tetrahydro-pyran-4-yl)-nicotinamide], the Ki came to 5.2 nM.

Turning to `CCCCc1noc(C)c1COc1ccc(C(=O)N2CCS(=O)(=O)CC2)cn1` [Example 18, [6-((3-Butyl-5-methyl-isoxazol-4-yl)methoxy)-pyridin-3-yl]-(1,1-dioxo-1,6-thiomorpholin-4-yl)-methanone], the Ki is 21.1 nM.

Take `Cc1onc(C2CCCCC2)c1COc1ccc(C(=O)NC(C)CO)cn1` (centres unmarked) [Example 36, 6-((3-Cyclohexyl-5-methyl-isoxazol-4-yl)methoxy)-N-(2-hydroxy-1-methyl-ethyl)-nicotinamide]: the Ki came out at 3.7 nM.

For the molecule `Cc1onc(CCC(F)(F)F)c1COc1ccc(C(=O)NC2CCOCC2)cn1` [Example 4, 6-[(5-Methyl-3-(3,3,3-trifluoro-propyl)-isoxazol-4-yl)methoxy]-N-(tetrahydro-pyran-4-yl)-nicotinamide], the Ki worked out at 39.9 nM.

Take `CCCCc1noc(C)c1COc1ccc(C(=O)NCC(C)O)cn1` (centres unmarked) [Example 17, 6-((3-Butyl-5-methyl-isoxazol-4-yl)methoxy)-N-(2-hydroxy-propyl)-nicotinamide]: the Ki came out at 5.2 nM.

Turning to `CCCCc1noc(C)c1COc1ccc(C(=O)NC2CCOC2)cn1` (centres unmarked) [Example 14, 6-((3-Butyl-5-methyl-isoxazol-4-yl)methoxy)-N-(tetrahydro-furan-3-yl)-nicotinamide], the Ki amounted to 5 nM.

Turning to `CCCCc1nocc1COc1ccc(C(=O)NCC(F)(F)F)cn1` [Example 26, 6-((3-Butyl-isoxazol-4-yl)methoxy)-N-(2,2,2-trifluoro-ethyl)-nicotinamide], the Ki was found to be 44.9 nM.

`CCCCc1noc(C)c1COc1ccc(C(=O)NC(CO)CO)cn1` [Example 15, 6-((3-Butyl-5-methyl-isoxazol-4-yl)methoxy)-N-(2-hydroxy-1-hydroxymethyl-ethyl)-nicotinamide]: the Ki came to 5.7 nM.

For `CCCCc1noc(C)c1CNc1ccc(C(=O)NC(C)C)cn1` [Example 42, 6-[((3-Butyl-5-methyl-isoxazol-4-yl)methyl)-amino]-N-isopropyl-nicotinamide], the Ki amounted to 57.9 nM.

Take `CCCCc1nocc1COc1ccc(C(=O)NC2CCOCC2)cn1` [Example 27, 6-((3-Butyl-isoxazol-4-yl)methoxy)-N-(tetrahydro-pyran-4-yl)-nicotinamide]: the Ki turned out to be 51.9 nM.

Consider `CCCCc1noc(C)c1COc1ccc(C(=O)NCCO)cn1` [Example 10, 6-((3-Butyl-5-methyl-isoxazol-4-yl)methoxy)-N-(2-hydroxy-ethyl)-nicotinamide], for which the Ki was determined as 5.7 nM.

Regarding `CCCCc1noc(C)c1COc1ccc(C(=O)N[C@@H](C)C(F)(F)F)cn1` [Example 20, 6-((3-Butyl-5-methyl-isoxazol-4-yl)methoxy)-N—((S)-2,2,2-trifluoro-1-methyl-ethyl)-nicotinamide], the Ki is 7.5 nM.

As to `CCCCc1noc(C)c1COc1ccc(C(=O)N[C@@H](C)CO)cn1` [Example 12, (−)-6-((3-Butyl-5-methyl-isoxazol-4-yl)methoxy)-N-(2-hydroxy-1-methyl-ethyl)-nicotinamide], the Ki turned out to be 3.8 nM.

For `CCCCc1noc(C)c1COc1ccc(C(=O)NC(C)C)cn1` [Example 5, 6-((3-Butyl-5-methyl-isoxazol-4-yl)methoxy)-N-isopropyl-nicotinamide], the Ki amounted to 4.1 nM.

Turning to `CCCCc1noc(C)c1COc1ccc(C(=O)Nc2ccn(C)n2)cn1` [Example 24, 6-((3-Butyl-5-methyl-isoxazol-4-yl)methoxy)-N-(1-methyl-1H-pyrazol-3-yl)-nicotinamide], the Ki was determined as 10.7 nM.

Take `CCCCc1noc(C)c1COc1ccc(C(=O)NC(C)(C)CO)cn1` [Example 8, 6-((3-Butyl-5-methyl-isoxazol-4-yl)methoxy)-N-(2-hydroxy-1,1-dimethyl-ethyl)-nicotinamide]: the Ki was 15.2 nM.

As for `CCCCc1noc(C)c1COc1ccc(C(=O)N[C@@H](C)C(F)(F)F)cn1` [Example 19, 6-((3-Butyl-5-methyl-isoxazol-4-yl)methoxy)-N—((S)-2,2,2-trifluoro-1-methyl-ethyl)-nicotinamide], the Ki was 8.4 nM.

As to `CCCc1noc(C)c1COc1ccc(C(=O)NC2CCOCC2)cn1` [Example 2, 6-((5-Methyl-3-propyl-isoxazol-4-yl)methoxy)-N-(tetrahydro-pyran-4-yl)-nicotinamide], the Ki was found to be 50.8 nM.

For the molecule `Cc1onc(C2CCOCC2)c1COc1ccc(C(=O)NC(C)C)cn1` [Example 37, N-Isopropyl-6-[(5-methyl-3-(tetrahydro-pyran-4-yl)-isoxazol-4-yl)methoxy]-nicotinamide], the Ki turned out to be 21.9 nM.

For the origin of these results see patent US8357703B2, “Pyridines” (Hoffmann-La Roche Inc., priority 2009, dated 2013).
